{"source": "patent US20250326753A1", "about": "“DUAL CXCR4-BTK INHIBITORS” (X4 Pharmaceuticals, Inc., priority 2022, published 2025)", "key": {"CXCR4 [1]": {"molecular_target": "T1, CXCR4 (Homo sapiens, UniProt P61073)", "T1 sequence (P61073 whole entry)": "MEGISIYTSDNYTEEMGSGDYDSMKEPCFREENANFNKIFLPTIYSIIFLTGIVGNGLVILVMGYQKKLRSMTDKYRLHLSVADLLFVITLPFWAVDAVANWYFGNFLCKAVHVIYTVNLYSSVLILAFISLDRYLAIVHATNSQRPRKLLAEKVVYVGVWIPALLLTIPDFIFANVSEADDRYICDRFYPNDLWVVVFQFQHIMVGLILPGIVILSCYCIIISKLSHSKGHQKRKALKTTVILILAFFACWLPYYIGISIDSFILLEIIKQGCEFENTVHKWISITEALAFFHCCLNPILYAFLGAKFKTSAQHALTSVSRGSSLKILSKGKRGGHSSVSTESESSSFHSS", "assay": "Intracellular CXCL-12-induced calcium mobilization assay (FLIPR), U87.CXCR4 cells", "format": "cell-based", "design": "expressed in transfected cells; host or cells: U87 (U87.CXCR4)", "conditions": "CXCL-12 25-50 ng/ml, read-out: IC50 CXCL-12 Ca2+ flux U87.CXCR4+", "description": "Intracellular calcium mobilization induced by chemokines or chemokine-derived peptides were evaluated using a calcium responsive fluorescent probe and a FLIPR system. The CXCR-4 transfected U87 cell line (U87.CXCR4) cells were seeded in gelatine-coated black-wall 96-well plates at 20,000 cells per well and incubated for 12 hours. Cells were then loaded with the fluorescent calcium probe Fluo-2 acetoxymethyl at 4 μM final concentration in assay buffer (Hanks' balanced salt solution with 20 mM HEPES buffer and 0.2% bovine serum albumin, pH 7.4) for 45 min at 37° C. The intracellular calcium mobilization induced by the CXCL-12 (25-50 ng/ml) was then measured at 37° C. by monitoring the fluorescence as a function of time in all the wells simultaneously using a fluorometric imaging plate reader (FLIPR Tetra, Molecular Devices)."}, "BTK": {"molecular_target": "BTK (Homo sapiens, UniProt Q06187)", "sequence (Q06187 whole entry)": "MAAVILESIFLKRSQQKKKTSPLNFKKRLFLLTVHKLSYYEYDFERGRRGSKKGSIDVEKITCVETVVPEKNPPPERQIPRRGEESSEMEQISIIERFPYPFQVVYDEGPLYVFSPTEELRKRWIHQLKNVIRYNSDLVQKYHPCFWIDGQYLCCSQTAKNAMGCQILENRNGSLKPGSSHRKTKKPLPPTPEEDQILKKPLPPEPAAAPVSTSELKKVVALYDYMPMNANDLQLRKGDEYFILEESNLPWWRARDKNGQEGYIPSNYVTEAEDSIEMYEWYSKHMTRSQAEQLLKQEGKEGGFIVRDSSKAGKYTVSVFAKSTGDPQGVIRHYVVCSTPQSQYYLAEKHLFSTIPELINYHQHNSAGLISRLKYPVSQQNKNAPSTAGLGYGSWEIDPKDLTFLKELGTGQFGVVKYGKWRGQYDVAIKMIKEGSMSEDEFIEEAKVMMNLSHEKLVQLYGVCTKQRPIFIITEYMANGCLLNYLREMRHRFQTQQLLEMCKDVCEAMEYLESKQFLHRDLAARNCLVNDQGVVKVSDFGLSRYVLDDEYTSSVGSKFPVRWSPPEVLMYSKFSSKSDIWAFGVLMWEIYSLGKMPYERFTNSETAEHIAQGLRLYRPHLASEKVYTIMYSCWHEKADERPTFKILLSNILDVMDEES", "assay": "BTK Kinase Enzyme System with ADP-Glo Kinase Assay", "format": "biochemical", "design": "Recombinant full-length human BTK was expressed by baculovirus in Sf9 insect cells; His (N); purchased Promega V9071; host or cells: Sf9 insect cells (baculovirus)", "conditions": "50 μM ATP", "description": "Inhibition of BTK activity was evaluated using the BTK Kinase Enzyme System in combination with the ADP-Glo™ Kinase Assay Kit (V9071, Promega), according to manufacturer's instructions. Luminescence was detected on a PerkinElmer EnVision Multimode Plate Reader.\nRecombinant full-length human BTK was expressed by baculovirus in Sf9 insect cells using an N-terminal His tag, MW ˜78 kDa. Substrate solution contained Poly (4:1 Glu, Tyr) Peptide Substrate. BTK Kinase Buffer consisted of: 40 mM Tris, pH 7.5; 20 mM MgCl2; 0.1 mg/ml BSA; 2 mM MnCl2; 50 μM DTT. ADP-Glo™ Reagents were thawed at ambient temperature; components of BTK Enzyme System, ADP and ATP were thawed on ice. Final assay conditions used 3 ng BTK, 50 μM ATP, and 0.2 mg/mL substrate. Compounds were tested at 11 dose points in duplicates, in 3-fold dilution with top concentration at 10 μM.\nAssay performance was evaluated according to the reference compound Staurosporine, which was within 3-5 fold of published results and between different tests, with a Z′ value larger than 0.5, where applicable."}, "CXCR4 [2]": {"molecular_target": "T1, CXCR4", "assay": "Chemokine (CXCL12-AF647) binding inhibition assay, Jurkat cells expressing CXCR4", "conditions": "CXCL12-AF647 25 ng/ml, read-out: IC50 CXCL-12 binding Jurkat", "description": "Jurkat cells expressing CXCR4 were washed once with assay buffer (Hanks' balanced salt solution with 20 mM HEPES buffer and 0.2% bovine serum albumin, pH 7.4) and then incubated for 15 min at room temperature with the test compounds diluted in assay buffer at dose-dependent concentrations. Subsequently, CXCL12-AF647 (25 ng/ml) was added to the compound-incubated cells. The cells were incubated for 30 min at room temperature. Thereafter, the cells were washed twice in assay buffer, fixed in 1% paraformaldehyde in PBS, and analyzed on the FL4 channel of a FACSCalibur flow cytometer equipped with a 635-nm red diode laser (Becton Dickinson, San Jose, CA, USA).\nThe percentages of inhibition of CXCL12-AF647 binding were calculated according to the formula: [1−((MFI−MFINC)/(MFIPC−MFINC))]×100 where MFI is the mean fluorescence intensity of the cells incubated with CXCL 12-AF647 in the presence of the inhibitor, MFINC is the mean fluorescence intensity measured in the negative control (i.e., autofluorescence of unlabeled cells), and MFIPC is the mean fluorescence intensity of the positive control (i.e., cells exposed to CXCL12-AF647 alone)."}, "[3]": {"molecular_target": "T2, BTK (Bruton tyrosine kinase) (Homo sapiens, UniProt Q06187)", "T2 construct": "GST or His (the text leaves open which); purchased Reaction Biology Europe GmbH Lot 012,11; host or cells: Sf9 insect cells or E. coli (not resolved)", "T2 sequence (Q06187 whole entry)": "as above", "assay": "BTK screening assay (33PanQinase Activity Assay, radiometric)", "format": "biochemical", "conditions": "Inhibition of BTK, radiometric 33PanQinase Activity Assay, 3 μM ATP, 10 concentrations in singlicate, top 10 μM; read-out: 33PanQinase ® Radiometric IC50", "description": "Inhibition of BTK activity was evaluated using a radiometric protein kinase assay (33PanQinase® Activity Assay) to measure the activity of BTK (Bruton tyrosine kinase).\nKinase assays were performed in 96-well ScintiPlates™ from Perkin Elmer (Boston, MA, USA) in a 50 μL reaction volume. The reaction cocktail was pipetted in four steps in the following order: 10 μL of non-radioactive ATP solution (in H2O); 25 μL of assay buffer/[γ-^33P]-ATP mixture; 5 μL of compound test sample in 10% DMSO; 10 μL of enzyme/substrate mixture.\nBTK kinase was expressed in Sf9 insect cells or in E. coli as recombinant GST-fusion proteins or His-tagged proteins, either as full-length or enzymatically active fragments from human cDNAs, and purified by either GSH-affinity chromatography or immobilized metal. Purity was examined by SDS-PAGE/Coomassie staining, and identity confirmed by mass spectroscopy.\nThe reaction cocktails were incubated at 30° C. for 60 minutes. The reaction was stopped with 50 μL of 2% (v/v) H3PO4, plates were aspirated and washed two times with 200 μL 0.9% (w/v) NaCl. Incorporation of ^33Pi (counting of “cpm”) was determined with a microplate scintillation counter (Microbeta, Wallac).\nThe median value of the counts in wells containing assay buffer without enzyme, and without test compound was defined as “low control.” This value reflects unspecific binding of radioactivity to the plate in the absence of a protein kinase but in the presence of the substrate. The median value of the counts in wells containing assay buffer without test compound was defined as the “high control,” i.e. full activity in the absence of any inhibitor. The difference between high and low control was taken as 100% activity. Residual activity (in %) was calculated using the following formula: Res. Activity (%)=100×[(cpm of compound-low control)/(high control-low control)].\nThe fitting method used was a least-squares fit."}}, "data": [{"smiles": "Cc1cccnc1[C@H]1CCC[C@@H](c2ncccc2C)N1CCCCNC(=O)c1cc2c(-c3ccc(CNC(=O)c4ccc(C(C)(C)C)cc4)cc3)ncnc2[nH]1", "note": "[Compound I-1]", "values": [{"measurement": "IC50", "setting": "CXCR4 [1]", "value": "> 2.5", "unit": "µM"}, {"measurement": "IC50", "setting": "BTK", "value": "0.1 to 1", "unit": "µM"}, {"measurement": "IC50", "setting": "CXCR4 [2]", "value": "0.001 to 0.1", "unit": "µM"}, {"measurement": "IC50", "setting": "[3]", "value": "0.1 to 1", "unit": "µM"}]}, {"smiles": "Cc1cccnc1[C@H]1CCC[C@@H](c2ncccc2C)N1CCCCN(C)C(=O)c1cc2c(-c3ccc(CNC(=O)c4ccc(C(C)(C)C)cc4)cc3)ncnc2[nH]1", "note": "[Compound I-2]", "values": [{"measurement": "IC50", "setting": "CXCR4 [1]", "value": "> 2.5", "unit": "µM"}, {"measurement": "IC50", "setting": "BTK", "value": "1 to 2.5", "unit": "µM"}, {"measurement": "IC50", "setting": "CXCR4 [2]", "value": "0.001 to 0.1", "unit": "µM"}, {"measurement": "IC50", "setting": "[3]", "value": "1 to 2.5", "unit": "µM"}]}, {"smiles": "Cc1cc(-c2ncnc3[nH]c(C(=O)NCCN4[C@@H](c5ncccc5C)CCC[C@H]4c4ncccc4C)cc23)ccc1CNC(=O)c1ccc(C(C)(C)C)cc1", "note": "[Compound I-3]", "values": [{"measurement": "IC50", "setting": "CXCR4 [1]", "value": "> 2.5", "unit": "µM"}, {"measurement": "IC50", "setting": "BTK", "value": "0.001 to 0.1", "unit": "µM"}, {"measurement": "IC50", "setting": "CXCR4 [2]", "value": "0.1 to 1", "unit": "µM"}, {"measurement": "IC50", "setting": "[3]", "value": "0.001 to 0.1", "unit": "µM"}]}, {"smiles": "Cc1cc(-c2ncnc3[nH]c(C(=O)NCCCN4[C@@H](c5ncccc5C)CCC[C@H]4c4ncccc4C)cc23)ccc1CNC(=O)c1ccc(C(C)(C)C)cc1", "note": "[Compound I-4]", "values": [{"measurement": "IC50", "setting": "CXCR4 [1]", "value": "> 2.5", "unit": "µM"}, {"measurement": "IC50", "setting": "BTK", "value": "0.001 to 0.1", "unit": "µM"}, {"measurement": "IC50", "setting": "CXCR4 [2]", "value": "0.001 to 0.1", "unit": "µM"}, {"measurement": "IC50", "setting": "[3]", "value": "0.001 to 0.1", "unit": "µM"}]}, {"smiles": "Cc1cc(-c2ncnc3[nH]c(C(=O)N(C)CCCN4[C@@H](c5ncccc5C)CCC[C@H]4c4ncccc4C)cc23)ccc1CNC(=O)c1ccc(C(C)(C)C)cc1", "note": "[Compound I-5]", "values": [{"measurement": "IC50", "setting": "CXCR4 [1]", "value": "> 2.5", "unit": "µM"}, {"measurement": "IC50", "setting": "BTK", "value": "0.1 to 1", "unit": "µM"}, {"measurement": "IC50", "setting": "CXCR4 [2]", "value": "0.1 to 1", "unit": "µM"}, {"measurement": "IC50", "setting": "[3]", "value": "0.1 to 1", "unit": "µM"}]}, {"smiles": "Cc1cccnc1[C@H]1CCC[C@@H](c2ncccc2C)N1CCCCNC[C@@H]1CC[C@@H](Nc2ncnc3[nH]cc(C(=O)c4ccc(Oc5ccccc5)cc4Cl)c23)CO1", "note": "[Compound I-13, (4-((3R,6S)-6-((4-((2R,6S)-2,6-bis(3-methylpyridin-2-yl)piperidin-1-yl)butylamino)methyl)tetrahydro-2H-pyran-3-ylamino)-7H-pyrrolo[2,3-d]pyrimidin-5-yl) (2-chloro-4-phenoxyphenyl) methanone]", "values": [{"measurement": "IC50", "setting": "CXCR4 [1]", "value": "> 2.5", "unit": "µM"}, {"measurement": "IC50", "setting": "BTK", "value": "0.1 to 1", "unit": "µM"}, {"measurement": "IC50", "setting": "CXCR4 [2]", "value": "0.1 to 1", "unit": "µM"}, {"measurement": "IC50", "setting": "[3]", "value": "0.1 to 1", "unit": "µM"}]}, {"smiles": "Cc1cccnc1[C@H]1CCC[C@@H](c2ncccc2C)N1CCCCOC(=O)[C@@H]1CC[C@@H](Nc2ncnc3[nH]cc(C(=O)c4ccc(Oc5ccccc5)cc4Cl)c23)CO1", "note": "[Compound I-14]", "values": [{"measurement": "IC50", "setting": "CXCR4 [1]", "value": "> 2.5", "unit": "µM"}, {"measurement": "IC50", "setting": "BTK", "value": "0.001 to 0.1", "unit": "µM"}, {"measurement": "IC50", "setting": "CXCR4 [2]", "value": "> 2.5", "unit": "µM"}, {"measurement": "IC50", "setting": "[3]", "value": "0.001 to 0.1", "unit": "µM"}]}, {"smiles": "Cc1cccnc1[C@H]1CCC[C@@H](c2ncccc2C)N1CCNC[C@@H]1CC[C@@H](Nc2ncnc3[nH]cc(C(=O)c4ccc(Oc5ccccc5)cc4Cl)c23)CO1", "note": "[Compound I-15, (4-((3R,6S)-6-((2-((2R,6S)-2,6-bis(3-methylpyridin-2-yl)piperidin-1-yl)ethylamino)methyl)tetrahydro-2H-pyran-3-ylamino)-7H-pyrrolo[2,3-d]pyrimidin-5-yl) (2-chloro-4-phenoxyphenyl) methanone]", "values": [{"measurement": "IC50", "setting": "CXCR4 [1]", "value": "> 2.5", "unit": "µM"}, {"measurement": "IC50", "setting": "BTK", "value": "1 to 2.5", "unit": "µM"}, {"measurement": "IC50", "setting": "CXCR4 [2]", "value": "1 to 2.5", "unit": "µM"}, {"measurement": "IC50", "setting": "[3]", "value": "1 to 2.5", "unit": "µM"}]}, {"smiles": "Cc1cccnc1[C@H]1CCC[C@@H](c2ncccc2C)N1CCNC(=O)[C@@H]1CC[C@@H](Nc2ncnc3[nH]cc(C(=O)c4ccc(Oc5ccccc5)cc4Cl)c23)CO1", "note": "[Compound I-17]", "values": [{"measurement": "IC50", "setting": "CXCR4 [1]", "value": "> 2.5", "unit": "µM"}, {"measurement": "IC50", "setting": "BTK", "value": "0.001 to 0.1", "unit": "µM"}, {"measurement": "IC50", "setting": "CXCR4 [2]", "value": "1 to 2.5", "unit": "µM"}, {"measurement": "IC50", "setting": "[3]", "value": "0.001 to 0.1", "unit": "µM"}]}, {"smiles": "Cc1cccnc1[C@H]1CCC[C@@H](c2ncccc2C)N1CCCn1cc(-c2ccc(Oc3ccccc3)cc2)c2c(N)ncnc21", "note": "[Compound I-64]", "values": [{"measurement": "IC50", "setting": "CXCR4 [1]", "value": "> 2.5", "unit": "µM"}, {"measurement": "IC50", "setting": "CXCR4 [2]", "value": "> 2.5", "unit": "µM"}, {"measurement": "IC50", "setting": "[3]", "value": "> 2.5", "unit": "µM"}]}, {"smiles": "Cc1cc(-c2ccnc(Nc3cnn(CCN4CCCCC4c4ncccc4C)c3)n2)ccc1CNC(=O)N1CC(OC(C)C)C1", "note": "(stereo not drawn) [Compound I-66]", "values": [{"measurement": "IC50", "setting": "CXCR4 [1]", "value": "> 2.5", "unit": "µM"}, {"measurement": "IC50", "setting": "CXCR4 [2]", "value": "> 2.5", "unit": "µM"}, {"measurement": "IC50", "setting": "[3]", "value": "0.001 to 0.1", "unit": "µM"}]}]}
